Laboratory results from patent US20240409536A1, “COMPOUNDS AND METHODS FOR MODULATING SPLICING” (REMIX THERAPEUTICS INC., priority 2021, published 2024).

Experiments:
HTT mRNA = assay: Gene panel canonical junction qPCR assay, HTT CJ mRNA decrease; type: cell-based, human; conditions: Homo sapiens, canonical junction qPCR, read-out: HTT IC50 (decrease in CJ mRNA levels)
Outline: (§1)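 A673 or K562 cells treated with compound; canonical exon-exon junction mRNA quantified by cDNA synthesis and RT-qPCR with junction-spanning primer/probe, normalized to GAPDH, GUSB or PPIA and DMSO (2^(−ΔΔCt)). Percent response from set ΔCt assay windows fitted to 4-parameter logistic; IC50 for CJ decrease.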

MYB mRNA = assay: Gene panel canonical junction qPCR assay, MYB CJ mRNA decrease; type: cell-based, human; conditions: Homo sapiens, canonical junction qPCR, read-out: MYB IC50 (decrease in CJ mRNA levels)
Outline: as §1

SMN2 mRNA = assay: Gene panel canonical junction qPCR assay, SMN2 CJ mRNA decrease; type: cell-based, human; conditions: Homo sapiens, canonical junction qPCR, read-out: SMN2 IC50 (decrease in CJ mRNA levels)
Outline: as §1

Target C mRNA = assay: Gene panel canonical junction qPCR assay, Target C CJ mRNA decrease; type: cell-based; conditions: Homo sapiens, canonical junction qPCR, read-out: Target C IC50 (decrease in CJ mRNA levels)
Outline: as §1

Target C = assay: HiBiT protein abundance assay, Target C (K562 HiBiT knock-in cells); type: cell-based, human; conditions: 24 hours
Outline: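 Protein abundance read by HiBiT lytic luminescence after 24 h compound exposure (37 °C) of knock-in K562 cells, 10000 cells/well in IMDM+1% FBS. Dosing: 10 points, 3-fold, top 10 μM final, ≤0.25% DMSO. Four-parameter logistic fit gave concentration reducing abundance to 50% of untreated control.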

K562 cells = assay: Cell Titer Glo 2.0 cell viability assay in K562 cells; conditions: 72 hours

Structure (SMILES) | IC50 (HTT mRNA) [nM] | IC50 (MYB mRNA) [nM] | IC50 (SMN2 mRNA) [nM] | IC50 (Target C mRNA) [nM] | IC50 (Target C) [nM] | Viability (K562 cells)
Cc1cn2cc(NC(=O)c3ccc(N4C[C@@H](C5CC5)N[C@@H](C)C4)c4nccnc34)cc(F)c2n1 [Compound 267, 8-((3R,5S)-3-cyclopropyl-5-methylpiperazin-1-yl)-N-(8-fluoro-2-methylimidazo[1,2-a]pyridin-6-yl)quinoxaline-5-carboxamide] | > 10000 | 100 to 1000 | < 100 | 1000 to 10000 | > 10000 | B (B represents 100-1000 nM)
COc1ccc2c(N3C[C@@H](C)N[C@@H](C)C3)ccc(C(=O)Nc3cc(F)c4nc(C)cn4c3)c2n1 [Compound 268, 5-[(3R,5S)-3,5-dimethylpiperazin-1-yl]-N-{8-fluoro-2-methylimidazo[1,2-a]pyridin-6-yl}-2-methoxyquinoline-8-carboxamide] | 1000 to 10000 | 100 to 1000 | < 100 | 1000 to 10000 | 1000 to 10000 | B (B represents 100-1000 nM)
Cc1cn2cc(NC(=O)c3ccc(N4CC[C@@H](N)C4)c4ccnnc34)cc(F)c2n1 [Compound 270] | 1000 to 10000 | 100 to 1000 | < 100 | > 10000 | 1000 to 10000 | B (B represents 100-1000 nM)
COc1cc2c(N3C[C@@H](C)N[C@@H](C)C3)ccc(C(=O)Nc3cc(F)c4nc(C)cn4c3)c2nn1 [Compound 273, 5-[(3R,5S)-3,5-dimethylpiperazin-1-yl]-N-{8-fluoro-2-methylimidazo[1,2-a]pyridin-6-yl}-3-methoxycinnoline-8-carboxamide] | 100 to 1000 | 100 to 1000 | < 100 | 100 to 1000 | 100 to 1000 | B (B represents 100-1000 nM)
COc1nc(NC(=O)c2ccc(N3C[C@@H](C)N[C@@H](C)C3)c3nccnc23)cn2cc(C)nc12 [Compound 277] | 100 to 1000 | < 100 | < 100 | 1000 to 10000 | 1000 to 10000 | B (B represents 100-1000 nM)
Cc1cn2cc(NC(=O)c3ccc(N4C[C@@H](C)N[C@@H](C)C4)c4ncc(Cl)nc34)cc(F)c2n1 [Compound 281] | > 10000 | 1000 to 10000 | 1000 to 10000 | > 10000 | 1000 to 10000 | C (C represents 1000-9999 nM)
Cc1cn2cc(NC(=O)c3ccc(N4C[C@@H](C)N[C@@H](C)C4)c4ncc(N(C)C)nc34)cc(F)c2n1 [Compound 283] | 100 to 1000 | < 100 | < 100 | 100 to 1000 | 100 to 1000 | B (B represents 100-1000 nM)
Cc1cn2c(C)c(NC(=O)c3ccc(N4C[C@@H](C)N[C@@H](C)C4)c4nccnc34)cc(F)c2n1 [Compound 285] | 1000 to 10000 | 100 to 1000 | 100 to 1000 | 1000 to 10000 | 1000 to 10000 | C (C represents 1000-9999 nM)
COc1nc(NC(=O)c2ccc(N3C[C@@H](C)N[C@@H](C)C3)c3nccnc23)nc2cn(C)nc12 [Compound 287] | > 10000 | 1000 to 10000 | 1000 to 10000 | > 10000 | > 10000 | D (D represents greater than 10 μM in K562 cells)
Cc1cn2cc(NC(=O)c3ccc(N4C[C@@H](C)N[C@@H](C)C4)c4nccnc34)nc(C)c2n1 [Compound 288] | 1000 to 10000 | < 100 | < 100 | 1000 to 10000 | 1000 to 10000 | C (C represents 1000-9999 nM)
C[C@@H]1CN(c2ccc(C(=O)Nc3ccc4nc(N(C)C)oc4c3)c3nccnc23)C[C@H](C)N1 [Compound 290] | > 10000 | 1000 to 10000 | > 10000 | > 10000 | > 10000 | D (D represents greater than 10 μM in K562 cells)
COc1nc2ccc(NC(=O)c3ccc(N4C[C@@H](C)N[C@@H](C)C4)c4nccnc34)cc2o1 [Compound 292] | > 10000 | 1000 to 10000 | 1000 to 10000 | > 10000 | 1000 to 10000 | D (D represents greater than 10 μM in K562 cells)
